Results on 35 compounds are retold here after BigSolDB 2.1.

The conditions of this data set: 298 K.

As usually defined, the solubility (mole fraction) is the moles of solute divided by all moles in the saturated solution. For the compound `O=[N+]([O-])c1ccc(NS(=O)(=O)c2ccccc2)cc1`, the solubility (mole fraction) is 3.16e-06 (in n-hexane), 0.0116 (in n-octanol) and 2.11e-06 (in water).
Turning to `Nc1ccc(S(=O)(=O)Nc2cc(Cl)c(Cl)cc2Cl)cc1`, the solubility (mole fraction) by setting is: (in n-hexane) 6.32e-06; (in n-octanol) 0.00109; (in water) 2.51e-07.
For the compound `CCOC(=O)c1ccc(NS(=O)(=O)c2ccccc2)nc1`, the solubility (mole fraction) is 0.0006 (in n-octanol) and 1.24e-06 (in water).
In the case of `Cc1cc(N)ccc1S(=O)(=O)Nc1ccccc1Cl`, the solubility (mole fraction) (in n-hexane) was found to be 1.08e-06, the solubility (mole fraction) (in n-octanol) amounted to 0.000115 and the solubility (mole fraction) (in water) was determined as 1.57e-07.
`N#Cc1ccc(NS(=O)(=O)c2ccc(N)cc2)cc1`: the solubility (mole fraction) is, setting by setting: (in n-octanol) 0.00129; (in water) 5.47e-06.
The corresponding values for `Cc1ccc(NS(=O)(=O)c2ccc(N)cc2)cc1Cl` are 0.000552 and 1.53e-07.
`Cc1cc(N)ccc1S(=O)(=O)Nc1ccccc1[N+](=O)[O-]` returned a solubility (mole fraction) (in n-hexane) of 3.22e-06, a solubility (mole fraction) (in n-octanol) of 0.000198 and a solubility (mole fraction) (in water) of 5.18e-07.
`CCc1ccc(NS(=O)(=O)c2ccc(N)cc2)cc1` returned a solubility (mole fraction) (in n-hexane) of 2.77e-06, a solubility (mole fraction) (in n-octanol) of 0.00104 and a solubility (mole fraction) (in water) of 5.09e-07.
For `O=[N+]([O-])c1ccccc1NS(=O)(=O)c1ccccc1`, the solubility (mole fraction) (in n-octanol) amounted to 0.0106 and the solubility (mole fraction) (in water) is 1.78e-06.
Consider `Nc1ccc(S(=O)(=O)N(c2ccccc2)c2ccccc2)cc1`, for which the solubility (mole fraction) turned out to be 5.4e-06 (in n-hexane), 0.000551 (in n-octanol) and 4.84e-07 (in water).
In the case of `O=[N+]([O-])c1ccc(S(=O)(=O)Nc2nccs2)cc1`, the solubility (mole fraction) (in water) amounted to 4.23e-06.
`Nc1ccc(S(=O)(=O)Nc2ccccc2Cl)c(Cl)c1` gave a solubility (mole fraction) (in n-octanol) of 7.4e-05 and a solubility (mole fraction) (in water) of 1.19e-07.
On the same counts, the results for `Nc1ccc(S(=O)(=O)Nc2ccc(I)cc2)cc1` are 0.00163 and 5.44e-07.
With `Cc1ccc(Cl)cc1NS(=O)(=O)c1ccc(N)cc1`, the solubility (mole fraction) was found to be 2.94e-06 (in n-hexane), 0.00188 (in n-octanol) and 1.61e-06 (in water).
For the compound `CCN(CC)S(=O)(=O)c1ccc(N)cc1`, the solubility (mole fraction) was 2.41e-05 (in n-hexane), 0.0108 (in n-octanol) and 4.27e-05 (in water).
On to `Nc1ccc(S(=O)(=O)Nc2ccc(Cl)c(Cl)c2)cc1`, for which the solubility (mole fraction) runs as follows: (in n-octanol) 0.000422; (in water) 2.05e-07.
On to `O=S(=O)(Nc1ncccc1Cl)c1ccccc1`, for which the solubility (mole fraction) reads like this: (in n-hexane) 6.58e-05; (in n-octanol) 0.00282; (in water) 1.17e-05.
On to `O=S(=O)(Nc1cccnc1Cl)c1ccccc1`, for which the solubility (mole fraction) turned out to be 2.63e-05 (in n-hexane) and 0.00151 (in n-octanol).
As for `Cc1cc(Cl)ccc1NS(=O)(=O)c1ccc(N)cc1`, the solubility (mole fraction) by setting is: (in n-octanol) 0.00489; (in water) 7.72e-07.
As for `Cc1cc(N)ccc1S(=O)(=O)Nc1ccc(Cl)cc1`, the solubility (mole fraction) reads like this: (in n-hexane) 4.59e-06; (in n-octanol) 0.00356; (in water) 6.71e-07.
In turn, `Cc1ccc(NS(=O)(=O)c2ccc([N+](=O)[O-])cc2)nc1` displayed a solubility (mole fraction) (in n-octanol) of 3.38e-05 and a solubility (mole fraction) (in water) of 1.13e-06.
With `Nc1ccc(S(=O)(=O)Nc2ccc(Cl)cc2)c(Cl)c1`, the solubility (mole fraction) is, setting by setting: (in n-octanol) 0.00248; (in water) 4.72e-07.
As for `CN(C)S(=O)(=O)c1ccc(N)cc1`, the solubility (mole fraction) runs as follows: (in n-hexane) 2.9e-06; (in n-octanol) 0.000873; (in water) 3.21e-05.
Take `Nc1ccc(S(=O)(=O)Nc2ccc([N+](=O)[O-])cc2)cc1`: the solubility (mole fraction) reads like this: (in n-octanol) 0.003; (in water) 3.65e-06.
As to `Nc1ccc(S(=O)(=O)Nc2cc(Cl)ccc2Cl)cc1`, the solubility (mole fraction) is, setting by setting: (in n-hexane) 4.69e-06; (in n-octanol) 0.000529; (in water) 7.25e-07.
Regarding `Nc1ccc(S(=O)(=O)Nc2cccc(Cl)c2Cl)cc1`, the solubility (mole fraction) runs as follows: (in n-hexane) 6.05e-06; (in n-octanol) 0.000681; (in water) 3.32e-07.
The corresponding values for `O=S(=O)(Nc1ccccc1)c1ccccc1` are 0.000101, 0.0335 and 8.49e-06.
For `O=S(=O)(Nc1ccccc1Cl)c1ccccc1`, the solubility (mole fraction) runs as follows: (in n-hexane) 7.73e-06; (in n-octanol) 0.0036; (in water) 8.69e-07.
On the same counts, the results for `Cc1ccc(NS(=O)(=O)c2ccc(N)cc2)c(Cl)c1` are 2.43e-06, 0.00158 and 7.65e-07.
In the case of `O=S(=O)(Nc1ccc(Cl)cc1)c1ccccc1`, the solubility (mole fraction) is, setting by setting: (in n-hexane) 1.37e-06; (in n-octanol) 0.0421; (in water) 1.68e-06.
`Nc1ccc(S(=O)(=O)Nc2ccc([N+](=O)[O-])cc2Br)cc1`: the solubility (mole fraction) is, setting by setting: (in n-octanol) 0.000308; (in water) 3.01e-07.
On the same counts, the results for `CNS(=O)(=O)c1ccc(N)cc1` are 0.00486 and 0.00103.
The corresponding values for `Nc1ccc(S(=O)(=O)Nc2ccc(Cl)cc2)cc1` are 0.00145 and 1.19e-06.
As to `COc1ccc(NS(=O)(=O)c2ccc(N)cc2)cc1`, the solubility (mole fraction) amounted to 2.24e-06 (in n-hexane), 0.000233 (in n-octanol) and 1.32e-06 (in water).
On the same counts, the results for `CCOc1ccc(NS(=O)(=O)c2ccc([N+](=O)[O-])cc2)cc1` are 3.95e-06, 0.00125 and 3.41e-07.
